Source: publication doi:10.1101/2024.08.13.607785v1 (biorxiv, 2024)

How the values were obtained:
Set-up in all cases: species or system mixed lysate of K562, MV4-11, THP-1, NCI-H1155
[1] = target: T1, Discoidin domain-containing receptor 2 ; DDR2 ; Q16832 (Homo sapiens, UniProt Q16832); settings: binder
T1 sequence (Q16832 1-855): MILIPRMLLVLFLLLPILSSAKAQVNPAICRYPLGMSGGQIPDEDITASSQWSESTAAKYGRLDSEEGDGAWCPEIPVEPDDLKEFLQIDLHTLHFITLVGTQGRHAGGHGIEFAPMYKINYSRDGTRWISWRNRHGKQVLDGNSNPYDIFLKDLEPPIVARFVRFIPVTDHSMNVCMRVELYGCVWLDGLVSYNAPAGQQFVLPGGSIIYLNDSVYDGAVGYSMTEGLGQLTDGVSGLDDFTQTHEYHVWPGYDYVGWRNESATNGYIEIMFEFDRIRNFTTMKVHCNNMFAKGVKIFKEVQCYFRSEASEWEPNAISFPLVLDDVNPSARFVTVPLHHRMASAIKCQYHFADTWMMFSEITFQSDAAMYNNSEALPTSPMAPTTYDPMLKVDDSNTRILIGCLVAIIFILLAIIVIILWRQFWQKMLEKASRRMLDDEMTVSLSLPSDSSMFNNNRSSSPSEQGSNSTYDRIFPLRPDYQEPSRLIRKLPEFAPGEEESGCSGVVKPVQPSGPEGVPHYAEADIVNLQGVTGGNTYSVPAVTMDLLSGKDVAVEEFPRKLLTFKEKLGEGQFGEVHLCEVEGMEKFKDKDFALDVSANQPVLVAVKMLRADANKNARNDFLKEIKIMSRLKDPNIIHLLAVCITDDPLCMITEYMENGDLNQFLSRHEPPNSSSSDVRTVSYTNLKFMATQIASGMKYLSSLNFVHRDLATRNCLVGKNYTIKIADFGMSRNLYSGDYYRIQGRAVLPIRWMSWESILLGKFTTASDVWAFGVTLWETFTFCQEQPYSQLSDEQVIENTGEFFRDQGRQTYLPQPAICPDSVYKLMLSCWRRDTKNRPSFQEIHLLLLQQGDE

[2] = target: Phosphatidylinositol 4-kinase alpha ; PI4KA ; P42356 (Homo sapiens, UniProt P42356); settings: DDA-MS residual binding; binder
Phosphatidylinositol 4-kinase alpha ; PI4KA ; P42356, sequence (P42356 whole entry): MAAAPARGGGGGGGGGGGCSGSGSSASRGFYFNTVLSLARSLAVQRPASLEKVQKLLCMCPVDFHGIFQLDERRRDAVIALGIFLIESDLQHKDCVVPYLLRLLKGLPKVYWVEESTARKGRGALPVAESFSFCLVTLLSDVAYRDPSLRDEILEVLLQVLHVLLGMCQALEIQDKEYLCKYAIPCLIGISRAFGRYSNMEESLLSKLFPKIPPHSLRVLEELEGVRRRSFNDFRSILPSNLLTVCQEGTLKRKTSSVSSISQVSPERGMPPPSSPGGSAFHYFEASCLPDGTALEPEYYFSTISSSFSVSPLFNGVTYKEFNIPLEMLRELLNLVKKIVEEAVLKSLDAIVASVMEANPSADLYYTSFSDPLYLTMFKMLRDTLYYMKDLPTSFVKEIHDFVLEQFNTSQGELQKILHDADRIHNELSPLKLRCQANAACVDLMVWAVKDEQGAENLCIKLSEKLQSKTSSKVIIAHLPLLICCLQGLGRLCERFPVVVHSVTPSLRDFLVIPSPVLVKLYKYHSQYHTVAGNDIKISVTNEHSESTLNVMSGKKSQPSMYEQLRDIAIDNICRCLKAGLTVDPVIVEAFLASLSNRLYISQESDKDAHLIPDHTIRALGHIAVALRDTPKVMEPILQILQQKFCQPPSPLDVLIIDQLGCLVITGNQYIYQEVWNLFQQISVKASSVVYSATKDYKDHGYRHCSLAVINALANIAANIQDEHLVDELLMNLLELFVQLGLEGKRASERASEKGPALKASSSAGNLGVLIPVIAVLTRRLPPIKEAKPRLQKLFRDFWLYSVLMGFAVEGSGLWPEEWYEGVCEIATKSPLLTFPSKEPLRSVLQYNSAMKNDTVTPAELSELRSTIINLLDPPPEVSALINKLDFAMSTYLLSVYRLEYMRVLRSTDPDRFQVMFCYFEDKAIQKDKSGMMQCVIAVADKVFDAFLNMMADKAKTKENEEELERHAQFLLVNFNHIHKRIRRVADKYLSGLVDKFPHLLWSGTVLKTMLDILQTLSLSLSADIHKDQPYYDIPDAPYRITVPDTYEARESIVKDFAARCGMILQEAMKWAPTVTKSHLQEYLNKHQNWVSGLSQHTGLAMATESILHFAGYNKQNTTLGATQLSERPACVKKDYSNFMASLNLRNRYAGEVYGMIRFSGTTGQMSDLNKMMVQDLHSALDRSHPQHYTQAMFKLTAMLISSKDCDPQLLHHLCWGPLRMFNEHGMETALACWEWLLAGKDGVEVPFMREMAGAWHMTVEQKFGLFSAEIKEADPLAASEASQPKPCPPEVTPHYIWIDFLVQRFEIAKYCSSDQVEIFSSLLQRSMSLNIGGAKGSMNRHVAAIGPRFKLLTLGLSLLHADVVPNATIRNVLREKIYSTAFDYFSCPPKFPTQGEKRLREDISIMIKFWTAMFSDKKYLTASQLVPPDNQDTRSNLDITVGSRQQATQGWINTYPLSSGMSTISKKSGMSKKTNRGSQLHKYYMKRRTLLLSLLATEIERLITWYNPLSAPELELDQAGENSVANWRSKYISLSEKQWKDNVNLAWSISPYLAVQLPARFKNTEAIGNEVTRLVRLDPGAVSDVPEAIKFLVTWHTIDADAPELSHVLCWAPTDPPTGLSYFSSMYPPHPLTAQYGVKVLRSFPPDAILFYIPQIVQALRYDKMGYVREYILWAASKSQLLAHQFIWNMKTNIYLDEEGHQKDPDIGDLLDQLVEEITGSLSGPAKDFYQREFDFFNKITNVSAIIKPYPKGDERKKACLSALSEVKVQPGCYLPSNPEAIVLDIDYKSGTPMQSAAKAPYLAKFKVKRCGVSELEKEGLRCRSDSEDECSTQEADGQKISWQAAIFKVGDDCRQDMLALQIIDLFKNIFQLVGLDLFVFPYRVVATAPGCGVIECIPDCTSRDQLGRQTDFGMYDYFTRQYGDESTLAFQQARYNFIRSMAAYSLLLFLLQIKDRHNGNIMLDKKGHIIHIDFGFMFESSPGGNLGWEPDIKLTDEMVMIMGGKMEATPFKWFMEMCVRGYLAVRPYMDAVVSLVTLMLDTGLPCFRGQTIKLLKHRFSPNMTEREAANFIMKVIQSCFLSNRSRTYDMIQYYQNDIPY

[3] = target: Tyrosine-protein kinase CSK ; CSK ; P41240 (Homo sapiens, UniProt P41240); settings: binder
[4] = target: Serine/threonine-protein kinase LMTK2 ; LMTK2 ; Q8IWU2 (Homo sapiens, UniProt Q8IWU2); settings: DDA-MS residual binding; binder
[5] = target: LIM domain kinase 2 ; LIMK2 ; P53671 (Homo sapiens, UniProt P53671); settings: DDA-MS residual binding; binder
LIM domain kinase 2 ; LIMK2 ; P53671, sequence (P53671 whole entry, the tested form may be a part): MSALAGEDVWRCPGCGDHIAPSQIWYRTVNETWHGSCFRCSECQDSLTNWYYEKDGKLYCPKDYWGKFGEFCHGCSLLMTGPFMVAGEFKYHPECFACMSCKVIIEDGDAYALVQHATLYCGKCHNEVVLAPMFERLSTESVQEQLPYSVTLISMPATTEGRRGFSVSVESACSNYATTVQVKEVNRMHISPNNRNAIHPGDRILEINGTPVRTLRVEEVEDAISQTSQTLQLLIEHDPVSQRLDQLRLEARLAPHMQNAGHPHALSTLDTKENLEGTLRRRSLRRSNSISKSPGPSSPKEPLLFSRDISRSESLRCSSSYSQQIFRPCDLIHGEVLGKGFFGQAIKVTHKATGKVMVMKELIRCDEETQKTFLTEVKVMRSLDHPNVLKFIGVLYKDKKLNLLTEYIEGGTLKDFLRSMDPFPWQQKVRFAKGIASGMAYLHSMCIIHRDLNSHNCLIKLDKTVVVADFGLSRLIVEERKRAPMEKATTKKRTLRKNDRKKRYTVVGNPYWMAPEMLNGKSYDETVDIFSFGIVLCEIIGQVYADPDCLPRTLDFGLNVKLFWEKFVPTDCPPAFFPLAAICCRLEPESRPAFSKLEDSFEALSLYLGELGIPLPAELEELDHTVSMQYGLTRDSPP

[6] = target: Mitogen-activated protein kinase 14 ; MAPK14-2 ; Q16539-2 (Homo sapiens, UniProt Q16539); settings: DDA-MS residual binding; binder
[7] = target: Tyrosine-protein kinase Fgr ; FGR ; P09769 (Homo sapiens, UniProt P09769); settings: binder
Tyrosine-protein kinase Fgr ; FGR ; P09769, sequence (P09769 whole entry): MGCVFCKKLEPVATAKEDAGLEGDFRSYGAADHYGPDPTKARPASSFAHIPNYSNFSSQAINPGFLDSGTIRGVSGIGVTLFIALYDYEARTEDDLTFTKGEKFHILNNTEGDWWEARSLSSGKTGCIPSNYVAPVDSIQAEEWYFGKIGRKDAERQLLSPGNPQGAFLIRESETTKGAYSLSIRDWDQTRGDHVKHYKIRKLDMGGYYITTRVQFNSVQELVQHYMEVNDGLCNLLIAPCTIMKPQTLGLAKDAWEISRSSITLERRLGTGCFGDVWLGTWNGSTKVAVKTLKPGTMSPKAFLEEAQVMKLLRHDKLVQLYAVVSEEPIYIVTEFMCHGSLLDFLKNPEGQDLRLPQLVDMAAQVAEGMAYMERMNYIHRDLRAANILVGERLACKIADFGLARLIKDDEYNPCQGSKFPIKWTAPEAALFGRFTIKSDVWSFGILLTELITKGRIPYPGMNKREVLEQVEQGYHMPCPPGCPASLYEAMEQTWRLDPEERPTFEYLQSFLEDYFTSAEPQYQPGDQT

[8] = target: Serine/threonine-protein kinase SIK2 ; SIK2 ; Q9H0K1 (Homo sapiens, UniProt Q9H0K1); settings: DDA-MS residual binding; binder
[9] = target: Epithelial discoidin domain-containing receptor 1 ; DDR1 ; Q08345 (Homo sapiens, UniProt Q08345); settings: binder
[10] = target: Mitogen-activated protein kinase kinase kinase kinase 5 ; MAP4K5 ; Q9Y4K4 (Homo sapiens, UniProt Q9Y4K4); settings: DDA-MS residual binding; binder
[11] = target: Mitogen-activated protein kinase kinase kinase 4 ; MAP3K4 ; Q9Y6R4 (Homo sapiens, UniProt Q9Y6R4); settings: binder
[12] = target: Tyrosine-protein kinase FRK ; FRK ; P42685 (Homo sapiens, UniProt P42685); settings: DDA-MS residual binding; binder
Tyrosine-protein kinase FRK ; FRK ; P42685, sequence (P42685 whole entry): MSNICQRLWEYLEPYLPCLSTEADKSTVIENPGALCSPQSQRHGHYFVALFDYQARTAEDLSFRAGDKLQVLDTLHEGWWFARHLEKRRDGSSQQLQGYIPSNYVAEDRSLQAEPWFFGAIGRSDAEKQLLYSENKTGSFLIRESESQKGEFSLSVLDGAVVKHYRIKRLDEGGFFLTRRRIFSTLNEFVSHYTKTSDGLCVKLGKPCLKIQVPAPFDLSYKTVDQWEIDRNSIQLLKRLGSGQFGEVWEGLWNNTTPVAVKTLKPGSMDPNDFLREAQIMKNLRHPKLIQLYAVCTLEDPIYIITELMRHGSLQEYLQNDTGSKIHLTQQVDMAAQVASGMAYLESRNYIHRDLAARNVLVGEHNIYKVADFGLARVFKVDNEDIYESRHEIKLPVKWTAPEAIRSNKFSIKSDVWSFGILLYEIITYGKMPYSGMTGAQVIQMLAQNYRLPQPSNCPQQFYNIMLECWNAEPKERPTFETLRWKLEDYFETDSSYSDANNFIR

[13] = target: Tyrosine-protein kinase Fyn ; FYN ; P06241 (Homo sapiens, UniProt P06241); settings: DDA-MS residual binding; binder
[14] = target: Isoform 3 of Serine/threonine-protein kinase SIK3 ; SIK3-7 ; Q9Y2K2-7 (Homo sapiens, UniProt Q9Y2K2); settings: DDA-MS residual binding; binder
Isoform 3 of Serine/threonine-protein kinase SIK3 ; SIK3-7 ; Q9Y2K2-7, sequence (Q9Y2K2 whole entry, canonical isoform, one chain of several): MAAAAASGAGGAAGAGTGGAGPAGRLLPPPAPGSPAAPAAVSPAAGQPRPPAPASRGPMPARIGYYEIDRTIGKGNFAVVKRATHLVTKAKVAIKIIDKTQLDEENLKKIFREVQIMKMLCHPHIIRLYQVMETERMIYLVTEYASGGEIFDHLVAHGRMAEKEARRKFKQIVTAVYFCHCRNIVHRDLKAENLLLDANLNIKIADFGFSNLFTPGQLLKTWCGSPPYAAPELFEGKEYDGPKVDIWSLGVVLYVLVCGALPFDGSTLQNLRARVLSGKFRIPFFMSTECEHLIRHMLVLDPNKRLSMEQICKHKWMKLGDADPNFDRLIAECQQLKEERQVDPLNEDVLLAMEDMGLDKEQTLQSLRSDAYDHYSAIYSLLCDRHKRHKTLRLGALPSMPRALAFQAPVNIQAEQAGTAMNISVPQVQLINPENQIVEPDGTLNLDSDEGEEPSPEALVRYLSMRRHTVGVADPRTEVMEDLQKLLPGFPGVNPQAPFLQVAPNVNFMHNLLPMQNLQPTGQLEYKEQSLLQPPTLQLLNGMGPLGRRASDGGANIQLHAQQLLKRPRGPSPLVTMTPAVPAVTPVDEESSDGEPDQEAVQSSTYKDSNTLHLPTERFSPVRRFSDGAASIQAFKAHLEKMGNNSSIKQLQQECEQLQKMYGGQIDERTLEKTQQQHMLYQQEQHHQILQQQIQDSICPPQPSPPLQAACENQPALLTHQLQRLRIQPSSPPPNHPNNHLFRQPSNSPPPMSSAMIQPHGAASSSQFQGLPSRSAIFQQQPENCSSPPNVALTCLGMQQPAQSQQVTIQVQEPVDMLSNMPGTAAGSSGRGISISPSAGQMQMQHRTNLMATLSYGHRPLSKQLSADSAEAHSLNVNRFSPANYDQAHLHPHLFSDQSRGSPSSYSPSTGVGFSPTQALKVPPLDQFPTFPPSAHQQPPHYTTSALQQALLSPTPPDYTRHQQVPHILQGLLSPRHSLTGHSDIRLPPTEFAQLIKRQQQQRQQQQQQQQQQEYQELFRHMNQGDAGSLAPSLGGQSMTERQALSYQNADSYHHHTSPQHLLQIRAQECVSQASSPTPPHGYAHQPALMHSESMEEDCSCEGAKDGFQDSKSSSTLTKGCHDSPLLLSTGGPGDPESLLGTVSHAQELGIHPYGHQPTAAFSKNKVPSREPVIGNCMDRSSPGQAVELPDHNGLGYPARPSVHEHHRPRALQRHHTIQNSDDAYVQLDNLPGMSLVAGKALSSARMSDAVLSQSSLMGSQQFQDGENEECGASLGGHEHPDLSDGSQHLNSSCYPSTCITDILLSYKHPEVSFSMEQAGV

DDA-MS / % Intensity (30 µM/DMSO) [1]: 10.23% | DDA-MS / % Intensity (30 µM/DMSO) [2]: 10.66% | DDA-MS / % Intensity (30 µM/DMSO) [3]: 0.3688% | DDA-MS / % Intensity (30 µM/DMSO) [4]: 9.69% | DDA-MS / % Intensity (30 µM/DMSO) [5]: 7.37% | DDA-MS / % Intensity (30 µM/DMSO) [6]: 29.04% | DDA-MS / % Intensity (30 µM/DMSO) [7]: 3.884% | DDA-MS / % Intensity (30 µM/DMSO) [8]: 1.826% | DDA-MS / % Intensity (30 µM/DMSO) [9]: 4.526% | DDA-MS / % Intensity (30 µM/DMSO) [10]: 24.77% | DDA-MS / % Intensity (30 µM/DMSO) [11]: 9.795% | DDA-MS / % Intensity (30 µM/DMSO) [12]: 5.626% | DDA-MS / % Intensity (30 µM/DMSO) [13]: 1.698% | DDA-MS / % Intensity (30 µM/DMSO) [14]: 6.597%
Structure (SMILES): Cc1nc(Nc2ncc(C(=O)Nc3c(C)cccc3Cl)s2)cc(N2CCN(CCO)CC2)n1 [dasatinib]
